A short description of series [1]: transport through open pores in the SC of a plasma treated area. As to conditions: applied more than 5 minutes after plasma treatment.
The nature of series [2]: plasmaporation-enhanced transdermal delivery across ex vivo porcine skin. Type of series: in vitro ADME. An excerpt: 27, 2013 and Sep. 29, 2013 incorporated herein. Others devices and techniques are described in U.S. Non-Provisional application Ser. No. 14/564,717 filed on Dec. 9, 2014, U.S. Non-Provisional application Ser. No. 14/610,467 filed on Jan. 30, 2015, and U.S. Non-Provisional application Ser. No. 14/967,512 filed on Dec. 14, 2015. All of these applications are incorporated by reference herein in their entirety.

Regarding Dextran [10 kDa Dextran], the “transport through the SC when applied after 5 minutes” value in series [1] is “no longer passed through the SC”.
As for dextran, the skin damage result in series [2] was “without creating skin damage”. Also, in series [2] (topically applied), the “time of transdermal delivery of topically applied molecules across skin with plasmaporation” value was ≤ 15 min.

The values are drawn from patent US20170246468A1, “METHODS AND SYSTEMS FOR CONTROLLING OR TUNING THE ELECTRIC FIELD GENERATED IN SKIN OR TISSUE DURING COLD PLASMA SKIN TREATMENTS” (EP Technologies LLC, priority 2016, published 2017).
